Measured values from ChEMBL document CHEMBL1136709, “Synthesis and estrogen receptor binding affinities of 7-hydroxy-3-(4-hydroxyphenyl)-4H-1-benzopyran-4-ones containing a basic side chain” (Bioorg Med Chem Lett, 2003).

Molecular target: T1, Estrogen receptor (Homo sapiens, UniProt P03372)
T1 sequence (P03372 whole entry): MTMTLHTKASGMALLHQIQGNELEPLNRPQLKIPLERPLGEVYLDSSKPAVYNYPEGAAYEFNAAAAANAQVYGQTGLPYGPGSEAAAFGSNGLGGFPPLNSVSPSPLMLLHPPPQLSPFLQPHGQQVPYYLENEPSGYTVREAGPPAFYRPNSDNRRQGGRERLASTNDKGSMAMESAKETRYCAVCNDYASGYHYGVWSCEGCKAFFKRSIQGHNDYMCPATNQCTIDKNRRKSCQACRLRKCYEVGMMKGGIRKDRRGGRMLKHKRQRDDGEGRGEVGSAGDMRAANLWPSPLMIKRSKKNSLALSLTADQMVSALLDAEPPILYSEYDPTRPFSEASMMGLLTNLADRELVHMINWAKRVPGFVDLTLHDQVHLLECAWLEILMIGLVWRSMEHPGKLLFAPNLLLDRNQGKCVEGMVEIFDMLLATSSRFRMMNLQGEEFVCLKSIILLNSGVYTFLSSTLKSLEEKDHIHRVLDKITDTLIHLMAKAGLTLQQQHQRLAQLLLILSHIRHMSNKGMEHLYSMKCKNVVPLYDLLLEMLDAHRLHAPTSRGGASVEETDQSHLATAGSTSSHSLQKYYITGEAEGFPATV
Test: Binding affinity for Estrogen receptor alpha

| Ki [nM] | SMILES | EC50 [nM] |
| --- | --- | --- |
| 3.9 | O=C(c1ccc(OCCN2CCCCC2)cc1)c1oc2cc(O)ccc2c(=O)c1-c1ccc(O)cc1 | – |
| – | O=c1c(-c2ccc(O)cc2)c(Sc2ccc(O)cc2)oc2cc(O)ccc12 | 1860 |
| – | O=c1c(-c2ccc(O)cc2)c(Oc2ccc(OCCN3CCCCC3)cc2)oc2cc(O)ccc12 | 200 |
| – | O=c1c(-c2ccc(O)cc2)c(Oc2ccc(O)cc2)oc2cc(O)ccc12 | 1740 |
| – | O=c1c(-c2ccc(O)cc2)c(Sc2ccc(OCCN3CCCCC3)cc2)oc2cc(O)ccc12 | 770 |
